Laboratory results: PubChem BioAssay (NCI)
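96-well plates; 48 h exposure; 5 concentrations. Endpoints by linear interpolation between flanking doses. Not reached: highest tested concentration assigned. GI50 = concentration required for 50% inhibition of growth. TGI denotes the concentration required for complete inhibition of growth.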

Key:
Assay in all cases: growth of human tumour cells (NCI), 48 h
[1] = system: MCF7 breast
[2] = system: HOP-92 NSCLC
[3] = system: SF-268 CNS
[4] = system: HS 578T breast
[5] = system: SW-620 colon
[6] = system: NCI-H23 lung
[7] = system: 786-0 renal
[8] = system: SK-OV-3 ovarian
[9] = system: SK-MEL-2 melanoma
[10] = system: T-47D breast

SMILES | TGI [1] [µM] | TGI [2] [µM] | TGI [3] [µM] | TGI [4] [µM] | TGI [5] [µM] | TGI [6] [µM] | TGI [7] [µM] | TGI [8] [µM] | TGI [9] [µM] | TGI [10] [µM] | GI50 [3] [µM]
COc1ccc(C)cc1Nc1nnc(-c2ccccc2N)s1 | > 100 | > 100 | > 100 | > 100 | > 100 | > 100 | > 100 | > 100 | 52.3 | > 100 | –
CSc1n[nH]c(N)c1C(=O)Nc1ccc(C)cc1 | > 100 | 68.3 | > 100 | > 100 | > 100 | > 100 | > 100 | > 100 | > 100 | 94.8 | –
CCNC(=O)c1cc(/C=C/c2ccc([N+](=O)[O-])o2)nc2ccccc12 | > 100 | > 100 | > 100 | > 100 | > 100 | > 100 | > 100 | > 100 | 16.6 | > 100 | –
O=C1/C(=N\S(=O)(=O)c2ccccc2)C([n+]2ccc(Cc3ccccc3)cc2)=C([O-])c2ccccc21 | 2.12 | 12.7 | 3.9 | 6.09 | 1.96 | 1.36 | 3.58 | 18.5 | 3 | 13 | –
COc1ccc(-n2c(=O)n(C)c(=O)n2-c2ccc(OC)cc2)cc1 | > 100 | > 100 | > 100 | > 100 | > 100 | > 100 | > 100 | > 100 | > 100 | > 100 | –
CCOC(=O)c1cc2c3c(c(C(C)=O)c(O)c2[nH]1)N(CC(C)CC)CC3 (stereo unspecified) | > 100 | > 100 | > 100 | 51.4 | > 100 | > 100 | > 100 | > 100 | > 100 | 92.6 | –
Cc1c2c(n(CCc3ccc(Cl)cc3)c1C)NC(c1ccccc1)C(C#N)S2(=O)=O (stereo unspecified) | > 60.1 | > 100 | > 100 | > 79.5 | > 100 | > 100 | > 100 | > 100 | > 68.9 | > 100 | –
CC1(C)CC(C)(C)C1=NNC(N)=O | > 100 | > 100 | > 100 | > 100 | > 100 | > 100 | > 100 | > 100 | > 100 | > 100 | –
O=C(Nc1ccccc1)N(CCCCN(Cc1ccccc1)C(=O)Nc1ccccc1)Cc1ccccc1 | > 100 | > 100 | > 100 | > 100 | > 100 | > 100 | > 100 | > 100 | > 100 | > 100 | –
CC(=O)Oc1c2oc3ccc(Cl)cc3c(=O)c2c(O)c2ccsc12 | > 100 | > 100 | > 100 | > 100 | > 100 | > 100 | > 100 | > 100 | > 100 | 86.7 | –
c1ccc2c(c1)CCc1c-2n(CCN2CCOCC2)c2ccccc12 | > 100 | 38.1 | > 100 | > 100 | > 100 | > 100 | > 100 | 82.9 | 25.8 | > 100 | –
O=C(OCCN=c1c2ccccc2ccc2ccccc12)c1ccc([N+](=O)[O-])cc1 | > 100 | > 100 | > 100 | > 100 | > 100 | > 100 | > 100 | > 100 | > 100 | > 100 | –
S=C1SCN(Cc2ccco2)CN1c1ccc(Br)cc1 | 31.3 | 60.7 | 40.7 | > 100 | 62.3 | 29.2 | 33 | 73.2 | 32 | > 100 | –
COC(=O)c1c(O)ccc2c1c1c(n2Cc2cccc(C)c2)C(=O)c2ccccc2C1=O | 20.2 | 19.8 | 25.9 | 34.9 | 32.4 | 26 | 25.8 | 23.8 | 27.4 | 12.4 | –
CCOC(=O)c1cnc2oc3ccc(O)cc3c2c1-c1ccccc1 | > 100 | > 100 | > 100 | > 100 | > 100 | > 100 | > 100 | 46.1 | > 100 | > 100 | 29.7
Oc1c([Si](c2ccccc2)(c2ccccc2)c2ccccc2)cc2ccccc2c1-c1c(O)c([Si](c2ccccc2)(c2ccccc2)c2ccccc2)cc2ccccc12 | > 100 | > 100 | > 100 | > 100 | > 100 | > 100 | > 100 | > 100 | > 100 | > 100 | –
CC(C)(Oc1ccc(Cl)cc1)C(=O)N(C(=O)N1CCC(c2ccccc2)CC1)c1ccccc1 | > 100 | > 100 | > 100 | > 100 | > 100 | > 100 | > 100 | > 100 | > 100 | > 30.3 | –
COc1cc(/C=C2/C[C@H]3[C@@H]4CC=C5C[C@@H](OC(C)=O)CC[C@]5(C)[C@H]4CC[C@]3(C)NC2=O)cc(OC)c1OC | > 100 | 52.3 | 76 | 74.2 | > 100 | 67 | 36.7 | 60.3 | 52.4 | 72.8 | –

SMILES | TGI [1] [µM] | TGI [2] [µM] | TGI [3] [µM] | TGI [4] [µM] | TGI [5] [µM] | TGI [6] [µM] | TGI [7] [µM] | TGI [8] [µM] | TGI [9] [µM] | TGI [10] [µM] | GI50 [3] [µM]
CCCCCCCCCCCCCCCCCCNc1ccn(C2OC(COP(=O)(O)OCC3OC(n4cc(F)c(NCCCCCCCCCCCCCCCCCC)nc4=O)CC3O)C(O)C2O)c(=O)n1 (stereo unspecified) | > 100 | > 100 | > 100 | > 100 | > 100 | > 100 | > 100 | > 100 | > 100 | > 100 | –
COC(=O)[C@H]1CO[C@H]2C/C(C)=C/CC/C(C)=C/CC[C@@]3(C)O[C@@H]3C[C@H]21 | > 50 | > 50 | > 50 | 36.5 | 24.2 | > 50 | > 50 | > 50 | > 50 | > 50 | –
O=C(Cn1c(C(=O)/C=C/c2cccs2)nc2ccccc21)c1ccc(Cl)cc1 | 48.4 | 93 | 66.5 | 38.7 | > 100 | 36.8 | 32.8 | > 100 | 20.8 | > 100 | –
O=c1cc(N2CCN(c3cc(=O)n4ccccc4n3)CC2)oc2ccccc12 | > 100 | > 100 | > 65.3 | > 80.2 | > 100 | > 100 | > 100 | > 100 | > 100 | > 100 | –
COc1cc(/C=C2\Sc3scc(-c4cccc([N+](=O)[O-])c4)[n+]3C2=O)cc(OC)c1OC | 13.7 | 73.9 | 42.1 | 57.1 | 23 | 33.2 | 22.2 | 59.9 | 39.8 | 25 | –
C#CCSC(C=C=C)P(=O)(OC(C)C)OC(C)C (stereo unspecified) | > 100 | > 100 | > 100 | 44.1 | > 100 | > 100 | > 100 | > 100 | > 100 | > 100 | –
O=C1c2cc3c(cc2CC12Cc1ccc4c(c1C2=O)CCCC4)CCCC3 (stereo unspecified) | > 100 | 64.2 | > 100 | > 100 | > 100 | > 100 | 46.1 | 87.4 | > 100 | > 100 | –
COC(=O)C(CSSC[C@H](N/C(C)=C/C(C)=O)C(=O)OC)N/C(C)=C/C(C)=O (stereo partly specified) | 88.6 | > 100 | > 100 | 52.9 | > 100 | > 100 | > 100 | > 100 | > 100 | 58 | –
CC[N+]1(C)CCC(O)(c2ccc(Cl)c(Cl)c2)C(C(=O)c2ccc(Cl)c(Cl)c2)C1 (stereo unspecified) | > 10 | > 10 | > 10 | > 10 | > 10 | > 10 | > 10 | > 10 | > 10 | > 10 | –
CC(=O)c1c(C(F)(F)F)n([O-])c2cc(Cl)c(Cl)cc2[n+]1=O | 1.52 | 0.88 | 2.53 | 2.38 | 1.34 | 2.71 | 0.38 | 2.9 | 2.72 | 2.96 | –
CCOc1cc(C2CC(c3ccc(NS(=O)(=O)c4cc([N+](=O)[O-])ccc4C)cc3)=NN2c2ccc([N+](=O)[O-])cc2[N+](=O)[O-])ccc1O (stereo unspecified) | 42.1 | 29.3 | 43.9 | 57.4 | > 100 | 42.9 | 6.71 | 10.4 | 44.3 | 60.2 | –
CC1(C)CC(=O)c2c(nc3ccc4ccccc4c3c2-c2ccc(NC(=O)CCCCCCCCC(=O)Nc3ccc(-c4c5c(nc6ccc7ccccc7c46)CC(C)(C)CC5=O)cc3)cc2)C1 | > 100 | > 100 | > 100 | > 100 | > 100 | > 100 | > 100 | > 100 | > 100 | > 100 | –
COc1ccc(-c2cc(-c3cc4cc(Br)ccc4nc3Cl)c(C#N)c(N)n2)cc1 | > 12.5 | > 12.5 | > 12.5 | > 12.5 | > 12.5 | > 12.5 | > 12.5 | > 12.5 | > 12.5 | > 12.5 | –
CN1CCN(CCCBr)CC1 | > 100 | > 100 | > 100 | > 100 | > 100 | > 100 | > 100 | > 100 | > 100 | > 100 | –
CCOC(=O)c1cc2c(C(=O)c3ccc([N+](=O)[O-])cc3)c(C(C)=O)ccc2[nH]1 | > 100 | 44.6 | 38.9 | 50.1 | > 100 | > 100 | > 100 | 51.3 | > 100 | > 100 | –
O=c1oc2ccccc2cc1-c1cn2cc(Cl)ccc2n1 | 2.12 | 36.4 | 16.7 | 8.19 | 31.7 | 21.1 | 8.95 | 5.96 | 24.9 | > 54.9 | –
N#Cc1c(-c2ccc(Cl)cc2)c2c(n(C3OC(CO)C(O)C(O)C3O)c1=S)CCC2 (stereo unspecified) | 40.9 | 60.7 | 84.7 | 84.3 | 58.4 | 70.6 | > 100 | > 100 | > 100 | 45.8 | –
